Columns and labels:
estrogen receptor = settings: literature, in words; cited from earlier work
[1] = test system: increase of uterine weight by estradiol in ovariectomized mice; test: Anti-estrogenic activity, inhibition of uterine weight increase, subcutaneous administration; format: in vivo, mice (ICR); settings: s.c.; for Inhibition (%) of increase of uterine weight: 30 μg/mouse, 3 days; for inhibition of increase of uterine weight compared to ZM189154: in words
Description: Anti-estrogenic activity of the test compound by subcutaneous administration was determined according to the method described hereinafter. In this experiment, the compounds of Examples 6, 7, 12 and 46 were used as the test compound and the known anti-estrogenic compound ZM189154 was used as the control compound as in Experiment 1.
In this experiment, the test compound or the control compound was dissolved in peanut oil (Sigma) and injected subcutaneously for 3 days, once a day. After 24 hours from the last injection, the test animal was sacrificed and uterus was removed and weighed.

MCF-7 cells = test: Cell growth inhibiting activity (MTT, 0.1 nM estradiol, 7 days); format: cell-based; settings: Homo sapiens, MCF7, 168 h, MCF-7, 0.1 nM estradiol
Description: In this experiment, the cell growth inhibiting activity was determined by using the compounds of Examples 6, 7, 12 and 46 as the test compound and the known anti-estrogenic compound ZM189154 having the following structure (see, EP0124369 B1) as the control compound, according to the method described hereinafter. [drawing 72]
One day before drug administration, incubated MCF-7 cells were plated in 96-well plate in the concentration of 5×10^3 cells per well. After the 96-well plate was incubated for one day, 0.1 nM of estradiol and the test compound in the given concentration were added to each well. The plate was incubated for 7 days at 37° C. and then MTT solution (Sigma) was added to each well in the amount of 15 μl and allowed to react for 2 hours at 37° C. After the reaction is completed, the solubilizing/stopping solution (constitution: SDS, acetic acid, N,N-dimethylformamide) was added to each well in the amount of 100 μl. Then, the absorption for each well at 570 nm was measured by means of a plate reader. IC50 value for inhibiting cell growth of 50% was calculated from the results as measured and described in the following Table 1.

[2] = test system: increase of uterine weight by estradiol in ovariectomized mice; test: Anti-estrogenic activity, inhibition of uterine weight increase, oral administration; format: in vivo, mice (ICR); settings: 10 mg/kg, p.o., 3 days
Description: Oral anti-estrogenic activity of the test compound was determined according to the method described hereinafter. In this experiment, the compound of Example 7 was used as the test compound and the known anti-estrogenic compound ZM189154 was used as the control compound as in Experiment 2.
In this experiment, the test compound or the control compound was suspended in 5% arabic gum solution and orally administered for 3 days, once a day. After 24 hours from the last administration, the test animal was sacrificed and uterus was removed and weighed.

mouse femur = test: Effect on bone mineral density of mouse femur; format: in vivo, BALB/c nude mouse (female); settings: for whole BMD / proximal BMD / distal BMD: mean ± SE, s.c. once a week, 6 weeks; for whole BMD: control 35.63 ± 0.97; for proximal BMD: control 35.95 ± 1.50; for distal BMD: control 37.80 ± 1.75
Description: The effect of the compound of the present invention on bone mineral density of mouse femur was determined according to the method described hereinafter. In this experiment, the compounds of Example 7 was used as the test compound and the known anti-estrogenic compound ZM189154 was used as the control compound as in Experiment 2.
MCF-7 cells (ATCC) as human breast cancer cell were transplanted subcutaneously into BALB/c nude mouse (female, 6 weeks) and then estradiol was percutaneously injected twice a week in an amount of 0.01 mg/mouse, for 3 weeks. Thereafter, estradiol was administered once a week in the same amount and the test compound or the control compound dissolved in 10% ethanol-90% peanut oil was administered. The control group received only vehicle. The test or control compound was administered subcutaneously in an amount of […], once a week. After the administration of the test compound for 6 weeks, left femur was excised and soft tissue was removed therefrom. Then the bone mineral density (BMD) was measured in a SPA mode by means of dual energy X-ray absorptiometry DCS-600 (Aloka). For interpretation, femur was divided into ten in the direction of long axis and the mean […] of 3, 4 and 3 fragments from proximal position were calculated. Each of the fragments was represented as proximal, middle or distal, respectively.

SMILES | Inhibition (%) of increase of uterine weight [1] [%] | inhibition of increase of uterine weight compared to ZM189154 [1] | IC50 (MCF-7 cells) [nM] | also measured
C[C@]12CC[C@@H]3c4ccc(O)cc4C[C@@H](CCCCCCCCC[S+]([O-])CCCC(F)(F)C(F)(F)F)[C@H]3[C@@H]1CC[C@@H]2O (stereo partly shown) | – | – | – | estrogenic activity (agonistic effect) (estrogen receptor): without agonistic effect
C[C@@]1(c2ccc(O)cc2)COc2cc(O)ccc2[C@@H]1CCCCCCCCCSCCCC(F)(F)C(F)(F)F (racemic) [Example 6, (3RS,4RS)-7-hydroxy-3-(4-hydroxyphenyl)-3-methyl-4-[9-(4,4,5,5,5-pentafluoropentylthio)nonyl]-2,3-dihydro-4H-benzopyran] | 83.1 | rather superior to that of ZM189154 | 277 | –
C[C@@]1(c2ccc(O)cc2)COc2cc(O)ccc2[C@@H]1CCCCCCCCC[S+]([O-])CCCC(F)(F)C(F)(F)F (mixture of isomers) [Example 7, (3RS,4RS)-7-hydroxy-3-(4-hydroxyphenyl)-3-methyl-4-[9-(4,4,5,5,5-pentafluoropentylsulfinyl)nonyl]-2,3-dihydro-4H-benzopyran] | 87.0 | rather superior to that of ZM189154 | 54.8 | Inhibition (%) of increase of uterine weight [2]: 68.1%; whole BMD (mouse femur): 37.23 ± 1.41 mg/cm^2; proximal BMD (mouse femur): 35.05 ± 2.05 mg/cm^2; distal BMD (mouse femur): 36.29 ± 1.46 mg/cm^2
C[C@@]1(c2ccc(O)cc2)COc2cc(O)ccc2[C@@H]1CCCCCCCCSCCCC(F)(F)C(F)(F)F (racemic) [Example 12, (3RS,4RS)-7-hydroxy-3-(4-hydroxyphenyl)-3-methyl-4-[8-(4,4,5,5,5-pentafluoropentylthio)octyl]-2,3-dihydro-4H-benzopyran] | 74.8 | rather superior to that of ZM189154 | 524 | –
C[C@@]1(c2ccc(O)cc2)COc2cc(O)ccc2[C@@H]1CCCCCCCCC[S+]([O-])CCN1CCCCC1 (mixture of isomers) [Example 46, (3RS,4RS)-7-hydroxy-3-(4-hydroxyphenyl)-3-methyl-4-[9-((2-piperidinoethyl)sulfinyl)nonyl]-2,3-dihydro-4H-benzopyran] | 16.7 | rather superior to that of ZM189154 | 33 | –
CCCCN(C)C(=O)CCCCCCCCCC[C@@H]1Cc2cc(O)ccc2[C@H]2CC[C@]3(C)[C@@H](O)CC[C@H]3[C@H]12 [7 α--(CH2)10 CONMeBu derivative] | – | – | – | anti-estrogenic activity (estrogen receptor): exhibit anti-estrogenic activity
CC/C(=C(\c1ccccc1)c1ccc(OCCN(C)C)cc1)c1ccccc1 [Tamoxifen] | – | – | – | estrogenic activity (agonistic effect) (estrogen receptor): exhibits estrogenic activity in some organs
CC1(c2ccc(O)cc2)CCc2cc(O)ccc2C1CCCCCCCCC[S+]([O-])CCCC(F)(F)C(F)(F)F (stereo not shown) [ZM189154] | 73.8 | – | 77 | Inhibition (%) of increase of uterine weight [2]: 41.7%; whole BMD (mouse femur): 34.57 ± 1.40 mg/cm^2; proximal BMD (mouse femur): 34.19 ± 2.19 mg/cm^2; distal BMD (mouse femur): 32.80 ± 1.30 mg/cm^2; decrease of BMD at distal femur (mouse femur; vs control): 13.3%; decrease of BMD at proximal femur (mouse femur; vs control): 4.9%; decrease of BMD at whole femur (mouse femur; vs control): 3.0%
